Laboratory results reported in patent US20220160716A1 (SORBONNE UNIVERSITE, priority 2019, published 2022).
pIC50: −log10 of the molar value.

Assays:
CDK9/T = target: T1, CDK9/T (Homo sapiens, UniProt P50750); assay: Protein kinase catalytic activity assay, CDK9/cyclin T; format: biochemical; settings: activator cyclin T; read-out: IC50 of protein kinases, CDK9/T
T1 construct: made in house

ABCB4-L556R [1] = target: T2, ABCB4-L556R (Homo sapiens, UniProt P21439, L556R); assay: Canalicular localisation of ABCB4-L556R by indirect immunofluorescence in HepG2 cells; format: cell-based; parameters: The subcloning of wild type (WT) ABCB4, isoform A (NM_000443.3), into pcDNA3 vector has been described; expressed in transfected cells; host or cells: HepG2 (immunofluorescence); settings: 25 μM
T2 sequence (P21439 1-1279 isoform P21439-2 L556R): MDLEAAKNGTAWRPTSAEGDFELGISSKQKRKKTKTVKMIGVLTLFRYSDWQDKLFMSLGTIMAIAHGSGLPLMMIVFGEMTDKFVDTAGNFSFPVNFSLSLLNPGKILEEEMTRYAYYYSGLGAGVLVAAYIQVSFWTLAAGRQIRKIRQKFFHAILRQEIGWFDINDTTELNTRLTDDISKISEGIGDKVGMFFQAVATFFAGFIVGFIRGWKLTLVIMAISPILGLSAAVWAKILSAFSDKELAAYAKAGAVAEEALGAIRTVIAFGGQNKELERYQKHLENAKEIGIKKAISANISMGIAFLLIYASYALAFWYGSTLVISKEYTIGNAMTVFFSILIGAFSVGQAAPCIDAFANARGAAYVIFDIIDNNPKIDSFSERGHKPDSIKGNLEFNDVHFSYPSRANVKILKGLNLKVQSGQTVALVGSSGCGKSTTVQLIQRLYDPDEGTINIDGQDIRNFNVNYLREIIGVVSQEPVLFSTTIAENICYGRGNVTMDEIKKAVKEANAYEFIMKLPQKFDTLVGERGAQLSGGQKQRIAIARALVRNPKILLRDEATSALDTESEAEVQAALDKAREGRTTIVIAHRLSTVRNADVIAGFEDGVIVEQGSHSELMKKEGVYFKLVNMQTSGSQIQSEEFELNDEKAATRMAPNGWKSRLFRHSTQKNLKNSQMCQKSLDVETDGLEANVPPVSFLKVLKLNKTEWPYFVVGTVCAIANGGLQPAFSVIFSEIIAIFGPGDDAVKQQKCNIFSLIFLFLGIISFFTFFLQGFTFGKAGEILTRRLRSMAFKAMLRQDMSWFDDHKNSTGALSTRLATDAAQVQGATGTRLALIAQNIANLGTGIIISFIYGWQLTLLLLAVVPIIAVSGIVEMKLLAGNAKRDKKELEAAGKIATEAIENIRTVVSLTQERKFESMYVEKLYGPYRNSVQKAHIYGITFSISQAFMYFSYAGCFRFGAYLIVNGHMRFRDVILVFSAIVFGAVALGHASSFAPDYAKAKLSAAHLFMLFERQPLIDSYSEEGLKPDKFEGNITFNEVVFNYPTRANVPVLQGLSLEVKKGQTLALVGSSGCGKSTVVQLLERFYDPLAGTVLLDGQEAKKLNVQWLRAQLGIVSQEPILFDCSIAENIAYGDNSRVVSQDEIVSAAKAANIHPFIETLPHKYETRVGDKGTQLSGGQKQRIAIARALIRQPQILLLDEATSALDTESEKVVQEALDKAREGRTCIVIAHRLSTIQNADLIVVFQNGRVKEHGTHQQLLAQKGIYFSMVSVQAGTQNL
Experimental: For indirect immunofluorescence, HepG2 cells were grown on glass coverslips and after transfection and treatments, they were fixed and permeabilized during 1 min at −20° C. in ice-cold methanol. Then ABCB4 and ABCC2 were immunolabelled using the mouse monoclonal P3II-26 (IgG2b) and M2I-4 (IgG1) antibodies (Enzo Life Sciences), respectively. AlexaFluor® 555 and AlexaFluor® 488 conjugated isotype-specific secondary antibodies (Thermo Fisher Scientific) and Hoechst 33342 (Thermo Fisher Scientific) were used to label ABCB4, ABCC2 and nuclei, respectively. Images were acquired using an IX83 inverted fluorescence microscope from Olympus (Rungis, France), equipped with a UPLSAPO 60XS2 silicone immersion objective and a Hamamatsu ORCA Flash4.0 digital CMOS camera, and analysed using Olympus CellSens Dimension Desktop version 1.16 and Adobe Photoshop version 8.0.1. For each experiment, all images were acquired with constant settings (acquisition time and correction of signal intensities).

ABCB4-I490T [2] = target: T3, ABCB4-I490T (Homo sapiens, UniProt P21439, I490T); assay: Maturation of ABCB4-I490T by immunoblot in HEK cells; format: cell-based; parameters: The subcloning of wild type (WT) ABCB4, isoform A (NM_000443.3), into pcDNA3 vector has been described; expressed in transfected cells; host or cells: HEK-293 (immunoblot, PC secretion); settings: 5 to 25 μM
T3 sequence (P21439 1-1279 isoform P21439-2 I490T): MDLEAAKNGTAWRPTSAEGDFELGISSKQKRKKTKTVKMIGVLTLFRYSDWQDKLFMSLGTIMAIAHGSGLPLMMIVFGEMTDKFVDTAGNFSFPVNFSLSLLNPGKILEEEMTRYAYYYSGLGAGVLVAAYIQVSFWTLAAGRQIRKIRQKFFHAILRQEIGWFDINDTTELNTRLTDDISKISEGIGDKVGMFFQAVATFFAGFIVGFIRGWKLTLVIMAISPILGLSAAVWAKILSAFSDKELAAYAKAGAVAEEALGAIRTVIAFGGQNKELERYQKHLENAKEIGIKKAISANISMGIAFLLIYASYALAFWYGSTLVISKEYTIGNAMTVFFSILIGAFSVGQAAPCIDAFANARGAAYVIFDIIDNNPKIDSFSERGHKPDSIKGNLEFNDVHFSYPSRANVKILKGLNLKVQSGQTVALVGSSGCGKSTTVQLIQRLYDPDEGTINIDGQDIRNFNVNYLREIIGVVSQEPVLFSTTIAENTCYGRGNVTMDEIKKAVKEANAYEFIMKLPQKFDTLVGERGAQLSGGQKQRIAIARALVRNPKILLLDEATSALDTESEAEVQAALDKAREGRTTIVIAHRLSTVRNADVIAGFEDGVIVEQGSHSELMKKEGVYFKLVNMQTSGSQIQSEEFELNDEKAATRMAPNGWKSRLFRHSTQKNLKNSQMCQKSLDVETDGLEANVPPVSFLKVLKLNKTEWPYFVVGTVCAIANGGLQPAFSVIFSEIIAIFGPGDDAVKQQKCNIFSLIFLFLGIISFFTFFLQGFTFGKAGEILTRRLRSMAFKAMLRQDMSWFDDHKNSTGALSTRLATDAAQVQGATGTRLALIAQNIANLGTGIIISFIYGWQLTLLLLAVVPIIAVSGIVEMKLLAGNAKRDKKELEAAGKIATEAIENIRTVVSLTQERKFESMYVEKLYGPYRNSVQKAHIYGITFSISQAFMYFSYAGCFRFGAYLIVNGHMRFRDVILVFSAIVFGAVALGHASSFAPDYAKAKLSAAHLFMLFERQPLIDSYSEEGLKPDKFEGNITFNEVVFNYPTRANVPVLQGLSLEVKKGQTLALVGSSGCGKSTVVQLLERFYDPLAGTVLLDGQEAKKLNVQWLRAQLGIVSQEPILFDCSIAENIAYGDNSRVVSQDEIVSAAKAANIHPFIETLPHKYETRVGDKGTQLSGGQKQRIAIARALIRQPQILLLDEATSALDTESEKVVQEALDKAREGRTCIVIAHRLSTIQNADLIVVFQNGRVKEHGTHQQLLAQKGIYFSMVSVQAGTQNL
Experimental: (§1) Western blots and indirect immunofluorescence were performed as previously described (2, 12). […] Saturated membranes were incubated with mouse monoclonal anti-ABCB4 (clone P3II-26; Enzo Life Sciences, Villeurbanne, France) or anti-α-tubulin (clone 1E4C11; ProteinTech, Manchester, United Kingdom) antibodies and then with peroxidase conjugated anti-mouse secondary antibodies (Sigma). Signals were detected with ECL prime western blotting detection reagent (GE Healthcare, Velizy-Villacoublay, France) and quantified in the linear range of detection using ImageJ 1.50i software (U.S. National Institutes of Health, Bethesda, Md.).

ABCB4-L556R [3] = target: T2, ABCB4-L556R; assay: Maturation of ABCB4-L556R by immunoblot in HEK cells; format: cell-based; parameters: The subcloning of wild type (WT) ABCB4, isoform A (NM_000443.3), into pcDNA3 vector has been described; expressed in transfected cells; host or cells: HEK-293 (immunoblot, PC secretion); settings: 5 to 25 μM
Experimental: as §1

ABCB4-I490T [4] = target: T3, ABCB4-I490T; assay: ABCB4-mediated phosphatidylcholine secretion, HEK cells expressing ABCB4-I490T; format: cell-based; parameters: The subcloning of wild type (WT) ABCB4, isoform A (NM_000443.3), into pcDNA3 vector has been described; expressed in transfected cells; host or cells: HEK-293 (immunoblot, PC secretion); settings: 25 μM
Experimental: (§2) Cyclosporin A (CsA) was from Santa Cruz Biotechnologies (Dallas, Tex.). […] Each compound was solubilized in dimethylsulfoxide (DMSO) as 1000× concentrated stock solutions in order to treat cells with 5 μM to 100 μM final concentrations, using DMSO as control vehicle at the same dilution (0.1% DMSO for all conditions). The cells were treated 24 hours post-transfection with these drugs during 16 hours, except for the viability assays for which cells were treated during three days. After drug treatment, cells were used for immunoanalyses, cell viability assays or PC secretion assays.
(§3) HEK cells were seeded in 0.01% poly-L-lysine (Sigma) pre-coated 6-well plates of 10 cm^2 area per well (1.3×10^6 cells per well). After transient transfection of the empty vector (control), plasmids encoding ABCB4-WT or its variants, cells were incubated during 24 hours at 37° C. in serum-free medium supplemented with 0.5 mM sodium taurocholate (Sigma) and 0.02% fatty acid-free bovine serum albumin (Sigma). Then, the secreted PC was quantified from the collected media using a fluoro-enzymatic assay previously described (12). Each condition was analysed in triplicate, after background subtraction, and results were normalized to the expression levels of ABCB4 determined by immunoblots of the corresponding cell lysates.

ABCB4-L556R [5] = target: T2, ABCB4-L556R; assay: ABCB4-mediated phosphatidylcholine secretion, HEK cells expressing ABCB4-L556R; format: cell-based; parameters: The subcloning of wild type (WT) ABCB4, isoform A (NM_000443.3), into pcDNA3 vector has been described; expressed in transfected cells; host or cells: HEK-293 (immunoblot, PC secretion); settings: 25 μM
Experimental: as §2, §3

T1 sequence (P50750 whole entry, species assumed): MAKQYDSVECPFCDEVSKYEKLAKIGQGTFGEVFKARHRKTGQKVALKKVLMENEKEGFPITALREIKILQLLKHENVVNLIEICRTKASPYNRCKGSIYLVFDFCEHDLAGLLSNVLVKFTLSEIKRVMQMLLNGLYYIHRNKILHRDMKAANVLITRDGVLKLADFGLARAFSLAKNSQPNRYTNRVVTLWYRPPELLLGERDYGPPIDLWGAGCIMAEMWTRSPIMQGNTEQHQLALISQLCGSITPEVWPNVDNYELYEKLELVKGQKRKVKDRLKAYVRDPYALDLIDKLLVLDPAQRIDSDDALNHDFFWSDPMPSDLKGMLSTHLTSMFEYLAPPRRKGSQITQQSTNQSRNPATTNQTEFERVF
T1 sequence (O60563 whole entry partner, species assumed): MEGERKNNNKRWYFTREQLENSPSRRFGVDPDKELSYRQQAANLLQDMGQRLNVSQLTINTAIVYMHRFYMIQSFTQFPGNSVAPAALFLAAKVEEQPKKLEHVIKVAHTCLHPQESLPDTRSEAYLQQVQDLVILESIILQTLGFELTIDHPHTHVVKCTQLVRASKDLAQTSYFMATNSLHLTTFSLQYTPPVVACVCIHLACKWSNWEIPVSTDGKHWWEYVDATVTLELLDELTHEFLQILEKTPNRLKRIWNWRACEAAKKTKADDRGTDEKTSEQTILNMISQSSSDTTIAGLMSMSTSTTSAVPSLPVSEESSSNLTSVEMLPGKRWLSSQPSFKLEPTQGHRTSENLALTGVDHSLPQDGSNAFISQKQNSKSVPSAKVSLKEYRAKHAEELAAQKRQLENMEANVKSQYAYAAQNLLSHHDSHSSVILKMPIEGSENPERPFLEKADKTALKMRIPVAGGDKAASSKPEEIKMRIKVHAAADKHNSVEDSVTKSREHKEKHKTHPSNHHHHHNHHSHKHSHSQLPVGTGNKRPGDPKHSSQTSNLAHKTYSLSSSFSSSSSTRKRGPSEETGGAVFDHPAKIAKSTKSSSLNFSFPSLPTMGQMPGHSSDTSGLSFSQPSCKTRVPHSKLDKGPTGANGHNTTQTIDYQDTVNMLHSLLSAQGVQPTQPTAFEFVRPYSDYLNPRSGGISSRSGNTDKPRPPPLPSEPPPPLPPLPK

SMILES	pIC50 (CDK9/T)	relocalisation of ABCB4-L556R at bile canaliculi (ABCB4-L556R [1])	rescue of the maturation of ABCB4-I490T (ABCB4-I490T [2])	rescue of the maturation of ABCB4-L556R (ABCB4-L556R [3])	PC secretion residual activity of ABCB4-I490T (ABCB4-I490T [4])	PC secretion residual activity of ABCB4-L556R (ABCB4-L556R [5])
CC[C@@H](Nc1nc(NCc2cccc(F)c2)c2ncn(C3CCCC3)c2n1)C(=O)O [MRT2-235]	5.15	partially relocalised at bile canaliculi	dose-dependent rescue of the maturation	dose-dependent rescue of the maturation	significant increase of the residual activity	significant increase of the residual activity
CC[C@@H](Nc1nc(NCc2cccc(Cl)c2)c2ncn(C3CCCC3)c2n1)C(=O)O [MRT2-237]	5.05	partially relocalised at bile canaliculi	dose-dependent rescue of the maturation	dose-dependent rescue of the maturation	significant increase of the residual activity	significant increase of the residual activity
CC[C@@H](Nc1nc(NCc2ccc(Cl)c(F)c2)c2ncn(C3CCCC3)c2n1)C(=O)O [MRT2-243]	5.30	partially relocalised at bile canaliculi	dose-dependent rescue of the maturation	dose-dependent rescue of the maturation	significant increase of the residual activity	significant increase of the residual activity
